Data on 1 molecule can be found in publication PMC10771525 (Communications Biology, 2024).

The target of this assay is HRH2 (Homo sapiens, UniProt P25021). Conditions: reference agonist, HRH2, CHO-K1, Arrestin.
Sequence of HRH2 (P25021 whole entry): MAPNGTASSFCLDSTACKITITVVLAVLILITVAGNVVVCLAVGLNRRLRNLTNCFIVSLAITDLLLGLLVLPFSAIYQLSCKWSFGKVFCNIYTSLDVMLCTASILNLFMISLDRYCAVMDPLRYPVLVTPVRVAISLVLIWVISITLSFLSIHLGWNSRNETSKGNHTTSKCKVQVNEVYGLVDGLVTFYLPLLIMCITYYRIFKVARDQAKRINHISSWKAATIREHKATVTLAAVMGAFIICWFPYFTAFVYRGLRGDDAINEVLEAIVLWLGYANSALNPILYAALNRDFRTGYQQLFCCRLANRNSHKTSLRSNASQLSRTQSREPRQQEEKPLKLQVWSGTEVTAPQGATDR

As for `NCCc1c[nH]cn1` [Histamine], the “EC80” value was determined as 110 µM.
